From patent US8138176B2, “Imidazo compounds” (Novartis AG, priority 2006, dated 2012)

System: plasma aldosterone and corticosterone levels
Assay: Suppression of plasma aldosterone and corticosterone levels in ACTH-stimulated rats
Assay type: in vivo, Wistar rats
Conditions: rat plasma, 4 mg/kg p.o., 2 h after dosing vs 1 h before dosing
Protocol: The aldosterone- and corticosterone-suppressing activity of herein described compounds may be assessed with the following in vivo protocol.
Adult male Wistar rats weighing between 250 and 350 grams are kept under the usual 12 hour light and 12 hour dark conditions at a temperature of 23° C.±2° C. On the first day of the experiment, the animals receive a subcutaneous injection of a depot ACTH product in a dose of 1.0 mg/kg weight (SYNACTHEN-Depot, Novartis, Basel, CH) 16 hours prior to the administration of a test compound. […] An alternative method to stimulate aldosterone secretion consists in subjecting rats to a low salt diet for 48 hours and applying the diuretic furosemide at 10 mg/kg by subcutaneous or intraperitoneal administration 16 hours, respectively 2 hours prior to the start of the experiment. On the second day of the experiment, the animals are divided into test groups of 5 animals and subjected to a first bleed 1 hour prior to the administration of test compound. Subsequently, and 16 hours after the injection of the ACTH product, the animals receive either vehicle or test compound dissolved in vehicle in a variable dose range from 0.02 to 20 mg/kg by oral gavage. The animals are bled two more times from the vena subclavia under isoflurane anaesthesia 2 and 6 hours after dosing. The blood is collected in heparin-treated tubes. The plasma samples are obtained by centrifugation and stored at −20° C. An alternative method to bleed animals time-dependently consists in using animals that are chronically carotid catheterized which allows the periodical sampling of up to 0.2 ml of blood using an AccuSampler (DiLab Europe, Lund, Sweden). The blood sampling with the AccuSampler may occur 1 hour prior to the administration of a test compound and 2, 4, 6, 8, 12, 16 and 24 hours thereafter. The blood samples are anticoagulated with heparin and centrifuged. The aldosterone and corticosterone concentrations of the plasma samples can be determined with a radioimmunoassay as described above for the in vitro test systems.
The selective suppression of plasma steroid levels as for instance aldosterone in comparison to corticosterone may serve as a measure for in vivo bioavailability and pharmacodynamic enzyme inhibitory activity of the herein described compounds. The evaluation of the data may occur relative to the application of vehicle or quantitatively by determination of the area under the curve (AUC).

Compound: Fc1ccc(C2COCc3cncn32)cc1 (stereo not shown) [Example 14, 5-(4-Fluorophenyl)-5,6-dihydro-8H-imidazo[5,1-c][1,4]oxazine]
- Aldosterone levels (% change at 2 h): −58 % change
- Corticosterone levels (% change at 2 h): −7 % change

Compound: CC(=O)c1ccc(C2COCc3cncn32)cc1 (stereo not shown) [Example 16]
- Aldosterone levels (% change at 2 h): −67 % change
- Corticosterone levels (% change at 2 h): −9 % change
